Data reported in publication PMC5739799 (Oncotarget, 2017).
“And” between values parts separate entries of the source, which are not always exact repeats. Equal entries are not always repeated.

How the values were obtained:
[1] = tested on: HCC-PDX model 217; assay: Patient-derived HCC xenograft model 217, tumor growth; format: in vivo, BALB/c nude mice
Description: (§1) The PDX studies were carried out by WuXi AppTec (Shanghai, China). HCC-PDX models were originally established from surgically resected tumor tissue that was implanted in 6–8-week-old female BALB/c nude mice. Animal studies were performed according to the guidelines approved by the Institutional Animal Care and Use Committee of Wuxi AppTec, which follow the guidance of the Association for the Assessment and Accreditation of Laboratory Animal Care. Animals were routinely monitored for their health status and their body weights. Treatment was suspended and/or doses reduced at body weight losses >10%. Animals were euthanized when the tumor size exceeded 2000 mm^3. Pieces from tumor xenografts (∼30 mm^3) from passages 4–8 (ST1) were implanted subcutaneously at the right flank, and tumors were grown to an average size of about 150–200 mm^3. […] Tumor size was measured twice weekly using caliper measurements. Tumor volume (mm^3) was calculated using the formula 0.5 a × b^2, where a and b are the long and short diameters of the tumor, respectively. TGI was assessed either by calculating the ratio of the mean tumor volumes of treated and control groups or by determination of the RTV, which relates tumor volumes at any given day of treatment to the volume at the first treatment day.
(§2) In the syngenic orthotopic H129 model, differences in survival times between groups were analyzed for significance using log-rank tests. Analysis of tumor volumes of the HCC-PDX models was performed with log2-transformed values on defined days of measurement based on the assumption of their log-normal distribution. […] All respective statistical test results were derived from a common linear model that allows for individual variances in the different groups. The adjustment for multiple testing was carried out using Šidák correction at a significance level of 0.05. Back transformation of the mean difference of log2-transformed tumor volumes led to the ratios of the compared groups, whereby ratios of 1 reflect no difference in tumor volumes and ratios below or above 1 reflect smaller or larger tumor volumes, respectively, of the respective second group. The analyses of RTV were carried out in a similar fashion without the log2 transformation of values. Bead-based western data were analyzed (described in [15]) using the MEV 4.8.1 software package. A p-value <0.05 was regarded as significant. All statistical analyses were performed with SAS® 9.4 [34].

[2] = tested on: HCC-PDX model 19; assay: Patient-derived HCC xenograft model 19, tumor growth; format: in vivo, BALB/c nude mice
Description: as §1, §2

[3] = tested on: HCC-PDX model 5; assay: Patient-derived HCC xenograft model 5, tumor growth; format: in vivo, BALB/c nude mice
Description: as §1, §2

[4] = tested on: HCC-PDX model 141; assay: Patient-derived HCC xenograft model 141, tumor growth; format: in vivo, BALB/c nude mice
Description: as §1, §2

[5] = tested on: HCC-PDX model 61; assay: Patient-derived HCC xenograft model 61, tumor growth; format: in vivo, BALB/c nude mice
Description: as §1, §2

[6] = tested on: H129 hepatoma; assay: Syngenic orthotopic H129 hepatoma mouse model, survival; format: in vivo, C3H/HeN mice; settings: sorafenib 30 mg/kg/day oral, separate study; vehicle 28 days
From the text: C3H/HeN mice aged 10–12 weeks with an average weight of 25 g were used for this model and were obtained from Charles River (Sulzfeld, Germany). Experiments were initiated after an acclimatizing period of at least 8 days. Syngenic murine H129 hepatoma cells (obtained from Dr. V. Schmitz, University of Bonn, Germany) were cultivated in RPMI medium, containing 10% fetal calf serum (FCS) and 5% glutamine. Cells were harvested in a subconfluent state (70–80%), prepared for injection of 5×10^4 cells/20 μL in growth factor-free Matrigel, and transplanted in the left upper liver lobe. Animals with surgical failures were marked and excluded from the experiment. Treatment was initiated 4–5 days after transplantation. One set of mice received regorafenib 10 mg/kg once daily, vehicle solution once daily, or no treatment (n=8 per treatment group). […] Treatments were given orally via gavage. The vehicle solution contained 10% Transcutol, 10% Cremophor, and 80% 0.9% NaCl. Animals were weighed twice a week and monitored daily for behavior and wound healing. […] Due to ascites formation in the peritoneum (a symptom of the disease), body weight was not used as part of the assessment. Animals were dissected to assess the cause of death unless they had died in their cage overnight.
(§3) In the syngenic orthotopic H129 model, differences in survival times between groups were analyzed for significance using log-rank tests. Analysis of tumor volumes of the HCC-PDX models was performed with log2-transformed values on defined days of measurement based on the assumption of their log-normal distribution. […] All respective statistical test results were derived from a common linear model that allows for individual variances in the different groups. The adjustment for multiple testing was carried out using Šidák correction at a significance level of 0.05. […] Bead-based western data were analyzed (described in [15]) using the MEV 4.8.1 software package. […]

[7] = tested on: HCC-PDX model 159; assay: Patient-derived HCC xenograft model 159, tumor growth; format: in vivo, BALB/c nude mice
Description: as §1, §2

[8] = tested on: HCC-PDX model 189; assay: Patient-derived HCC xenograft model 189, tumor growth; format: in vivo, BALB/c nude mice
Description: as §1, §2

[9] = Steady-state plasma pharmacokinetics after oral dosing for 5 days; format: in vivo, BALB/c nu/nu mice
Description: Pharmacokinetic studies were performed in 6–8-week-old female BALB/c nu/nu mice (Charles River, Sulzfeld, Germany). […] Parent compounds and metabolites M-2 and M-5 were analyzed in plasma samples using validated bioanalytical liquid chromatography-tandem mass spectrometry (LC-MS/MS) methods according to an experimental protocol described earlier. PK parameters, namely the AUC(0–24)ss and Cmax, were calculated from plasma concentrations using a non-compartmental analysis.

[10] = tested on: HCC-PDX model 10; assay: Patient-derived HCC xenograft model 10, tumor growth; format: in vivo, BALB/c nude mice
Description: as §1, §2

[11] = tested on: 10 patient-derived HCC xenograft (HCC-PDX) models; assay: Panel of 10 HCC-PDX models, overall response and tolerability; format: in vivo, BALB/c nude mice
Description: as §1, §3

[12] = day 28, R 10 / S 30 mg/kg/day oral starting dose
[13] = plasma analyte after oral sorafenib tosylate 30 mg/kg/day (21.9 mg/kg/day sorafenib) for 5 days

## CNC(=O)c1cc(Oc2ccc(NC(=O)Nc3ccc(Cl)c(C(F)(F)F)c3)cc2)ccn1 [Sorafenib]
[1]; day 13, R 10 / S 30 mg/kg/day oral
  Mean TV: 1087.45 mm^3
[1]; day 13, log2-transformed TV
  log TV Differences of least square-means, compound vs vehicle: -10,119
[1]; end of study (RTV analysis day R 24, S 20)
  RTV: 10.84
[2]; [12]
  Mean TV: 496.54 mm^3
[2]; day 28, log2-transformed TV
  log TV Differences of least square-means, compound vs vehicle: -0.6887
[2]; day 42
  RTV Differences of least square-means, compound vs vehicle: -29.3
[2]; end of study, day 42
  RTV: 4.70
[3]; [12]
  Mean TV: 134.44 mm^3
[3]; day 28, log2-transformed TV
  log TV Differences of least square-means, compound vs vehicle: -24,884
[3]; day 46
  RTV Differences of least square-means, compound vs vehicle: -54,048
[3]; end of study, day 46
  RTV: 1.74
[4]; [12]
  Mean TV: 139.51 mm^3
[4]; end of study, day 42
  RTV: 2.16
[5]; day 25, R 10 / S 30 mg/kg/day oral
  Mean TV: 424.86 mm^3
[5]; end of study (RTV analysis day R 42, S 36)
  RTV: 5.28
[6]
  Median survival, days (95% CI): 33 days and 33 (27, 35) days
[7]; [12]
  Mean TV: 1144.22 mm^3
[7]; day 28, log2-transformed TV
  log TV Differences of least square-means, compound vs vehicle: -0.3943
[7]; end of study, day 35
  RTV: 9.73
[8]; day 21
  RTV Differences of least square-means, compound vs vehicle: -29,028
[8]; day 21, R 10 / S 30 mg/kg/day oral starting dose
  Mean TV: 351.96 mm^3
[8]; day 21, log2-transformed TV
  log TV Differences of least square-means, compound vs vehicle: -10,604
[8]; end of study, day 21
  RTV: 2.66
[9]; after oral sorafenib tosylate 30 mg/kg/day for 5 days, total = molar sum of sorafenib and M-2
  AUC(0–24)ss (percent of total): 99% of total
[9]; [13]
  AUC(0–24)ss: 177 µM·h
  Cmax: 23.9 µM
[9]; sorafenib 30 mg/kg/day related to free base (HCC-PDX study dose), assuming dose linearity
  Estimated Cmax: 33.6 µM
[9]; sorafenib tosylate 30 mg/kg once daily for 5 days, parent plus metabolites
  Cumulated maximum concentration (Cmax): 24.5 µM
[10]; day 12, R 10 / S 30 mg/kg/day oral
  Mean TV: 607.16 mm^3
[10]; day 12, log2-transformed TV
  log TV Differences of least square-means, compound vs vehicle: -17,966
[10]; end of study (RTV analysis day R 40, S 30)
  RTV: 13.39
[11]; 10 HCC-PDX models, regorafenib 10, sorafenib 30 mg/kg/day oral
  Models with significant tumor growth inhibition: 7/10
[11]; HCC-PDX models, sorafenib compared with regorafenib
  Dose reductions and/or treatment interruptions: more often
